Measurements taken from patent US20220324815A1, “2-PHENOXY-PYRIMIDINE DERIVATIVES AS HERBICIDAL COMPOUNDS” (SYNGENTA CROP PROTECTION AG, priority 2019, published 2022).

What was measured:
Format in all cases: in vivo
Conditions in all cases: 250 g/ha unless otherwise stated, evaluated after 13 days, five-point scale
Setaria faberi (SETFA) [1] = assay: Test 1 glasshouse herbicide test, post-emergence application (Table B1)
In short: (§1)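 Score is % phytotoxicity after 13 days, binned 1 (0–20%) to 5 (81–100%). Compound given at 250 g/ha unless stated, as acetone/water (50:50) spray with 0.5% Tween 20, one day post-sowing (pre-emergence) or after 8 days' growth (post-emergence); glasshouse at 24/16 °C day/night, 14 h light, 65% humidity.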

[2] = system: Ipomoea hederacea (IPOHE); assay: as above
In short: as §1

[3] = system: Echinochloa crus-galli (ECHCG); assay: as above
In short: as §1

[4] = system: Amaranthus retoflexus (AMARE); assay: as above
In short: as §1

Setaria faberi (SETFA) [5] = assay: Test 1 glasshouse herbicide test, pre-emergence application (Table B2)
In short: as §1

[6] = system: Ipomoea hederacea (IPOHE); assay: as above
In short: as §1

[7] = system: Echinochloa crus-galli (ECHCG); assay: as above
In short: as §1

[8] = system: Amaranthus retoflexus (AMARE); assay: as above
In short: as §1

In the case of FC(F)CCSc1c(Cl)cccc1Oc1ncc(Cl)cn1 [Compound A94], the “% phytotoxicity SETFA, post-emergence application” value (Setaria faberi (SETFA) [1]) was 5 (5=81 to 100%), the “% phytotoxicity IPOHE, post-emergence application” value [2] was 3 (3=41 to 60%) and the “% phytotoxicity ECHCG, post-emergence application” value [3] was 5 (5=81 to 100%). The “% phytotoxicity AMARE, post-emergence application” value [4] was 5 (5=81 to 100%), the “% phytotoxicity SETFA, pre-emergence application” value (Setaria faberi (SETFA) [5]) was 5 (5=81 to 100%) and the “% phytotoxicity IPOHE, pre-emergence application” value [6] was 3 (3=41 to 60%). The “% phytotoxicity ECHCG, pre-emergence application” value [7] was 5 (5=81 to 100%) and the “% phytotoxicity AMARE, pre-emergence application” value [8] was 5 (5=81 to 100%).

With [O-][S+](CCC(F)F)c1c(Cl)cccc1Oc1ncc(Cl)cn1 (stereo not drawn) [Compound A95] the “% phytotoxicity SETFA, post-emergence application” value (Setaria faberi (SETFA) [1]) was 1 (1=0 to 20%), the “% phytotoxicity IPOHE, post-emergence application” value [2] was 4 (4=61 to 80%) and the “% phytotoxicity ECHCG, post-emergence application” value [3] was 2 (2=21 to 40%). For the same compound, the “% phytotoxicity AMARE, post-emergence application” value [4] was 4 (4=61 to 80%), the “% phytotoxicity SETFA, pre-emergence application” value (Setaria faberi (SETFA) [5]) was 5 (5=81 to 100%) and the “% phytotoxicity IPOHE, pre-emergence application” value [6] was 5 (5=81 to 100%). For the same compound, the “% phytotoxicity ECHCG, pre-emergence application” value [7] was 5 (5=81 to 100%) and the “% phytotoxicity AMARE, pre-emergence application” value [8] was 5 (5=81 to 100%).

In the case of O=S(=O)(CCC(F)F)c1c(Cl)cccc1Oc1ncc(Cl)cn1 [Compound A96], the “% phytotoxicity SETFA, post-emergence application” value (Setaria faberi (SETFA) [1]) was 5 (5=81 to 100%), the “% phytotoxicity IPOHE, post-emergence application” value [2] was 5 (5=81 to 100%) and the “% phytotoxicity ECHCG, post-emergence application” value [3] was 5 (5=81 to 100%). The “% phytotoxicity AMARE, post-emergence application” value [4] was 5 (5=81 to 100%), the “% phytotoxicity SETFA, pre-emergence application” value (Setaria faberi (SETFA) [5]) was 5 (5=81 to 100%) and the “% phytotoxicity IPOHE, pre-emergence application” value [6] was 5 (5=81 to 100%). For the same compound, the “% phytotoxicity ECHCG, pre-emergence application” value [7] was 5 (5=81 to 100%) and the “% phytotoxicity AMARE, pre-emergence application” value [8] was 5 (5=81 to 100%).

In the case of N#Cc1cccc(Oc2ncc(Cl)cn2)c1S(=O)(=O)CCC(F)F [Compound A97], the “% phytotoxicity SETFA, post-emergence application” value (Setaria faberi (SETFA) [1]) was 2 (2=21 to 40%), the “% phytotoxicity IPOHE, post-emergence application” value [2] was 4 (4=61 to 80%) and the “% phytotoxicity ECHCG, post-emergence application” value [3] was 4 (4=61 to 80%). The “% phytotoxicity AMARE, post-emergence application” value [4] was 5 (5=81 to 100%), the “% phytotoxicity SETFA, pre-emergence application” value (Setaria faberi (SETFA) [5]) was 4 (4=61 to 80%) and the “% phytotoxicity IPOHE, pre-emergence application” value [6] was 5 (5=81 to 100%). The “% phytotoxicity ECHCG, pre-emergence application” value [7] was 4 (4=61 to 80%) and the “% phytotoxicity AMARE, pre-emergence application” value [8] was 5 (5=81 to 100%).

For N#Cc1cccc(Oc2ncc(Cl)cn2)c1[S+]([O-])CCC(F)F (stereo not drawn) [Compound A98], the “% phytotoxicity SETFA, post-emergence application” value (Setaria faberi (SETFA) [1]) was 4 (4=61 to 80%), the “% phytotoxicity IPOHE, post-emergence application” value [2] was 4 (4=61 to 80%) and the “% phytotoxicity ECHCG, post-emergence application” value [3] was 4 (4=61 to 80%). For the same compound, the “% phytotoxicity AMARE, post-emergence application” value [4] was 5 (5=81 to 100%), the “% phytotoxicity SETFA, pre-emergence application” value (Setaria faberi (SETFA) [5]) was 5 (5=81 to 100%) and the “% phytotoxicity IPOHE, pre-emergence application” value [6] was 5 (5=81 to 100%). For the same compound, the “% phytotoxicity ECHCG, pre-emergence application” value [7] was 5 (5=81 to 100%) and the “% phytotoxicity AMARE, pre-emergence application” value [8] was 5 (5=81 to 100%).

N#Cc1cccc(Oc2ncc(Cl)cn2)c1SCCC(F)F [Compound A99] was tested, and the “% phytotoxicity SETFA, post-emergence application” value (Setaria faberi (SETFA) [1]) was 4 (4=61 to 80%), the “% phytotoxicity IPOHE, post-emergence application” value [2] was 4 (4=61 to 80%) and the “% phytotoxicity ECHCG, post-emergence application” value [3] was 5 (5=81 to 100%). The “% phytotoxicity AMARE, post-emergence application” value [4] was 5 (5=81 to 100%), the “% phytotoxicity SETFA, pre-emergence application” value (Setaria faberi (SETFA) [5]) was 5 (5=81 to 100%) and the “% phytotoxicity IPOHE, pre-emergence application” value [6] was 5 (5=81 to 100%). The “% phytotoxicity ECHCG, pre-emergence application” value [7] was 5 (5=81 to 100%) and the “% phytotoxicity AMARE, pre-emergence application” value [8] was 5 (5=81 to 100%).

N#Cc1cccc(Oc2ncc(Cl)cn2)c1SCCCC(F)F [Compound A100] was tested, and the “% phytotoxicity SETFA, post-emergence application” value (Setaria faberi (SETFA) [1]) was 4 (4=61 to 80%), the “% phytotoxicity IPOHE, post-emergence application” value [2] was 5 (5=81 to 100%) and the “% phytotoxicity ECHCG, post-emergence application” value [3] was 5 (5=81 to 100%). The “% phytotoxicity AMARE, post-emergence application” value [4] was 5 (5=81 to 100%), the “% phytotoxicity SETFA, pre-emergence application” value (Setaria faberi (SETFA) [5]) was 5 (5=81 to 100%) and the “% phytotoxicity IPOHE, pre-emergence application” value [6] was 5 (5=81 to 100%). For the same compound, the “% phytotoxicity ECHCG, pre-emergence application” value [7] was 5 (5=81 to 100%) and the “% phytotoxicity AMARE, pre-emergence application” value [8] was 5 (5=81 to 100%).

N#Cc1cccc(Oc2ncc(Cl)cn2)c1[S+]([O-])CCCC(F)F (stereo not drawn) [Compound A101] was tested, and the “% phytotoxicity SETFA, post-emergence application” value (Setaria faberi (SETFA) [1]) was 4 (4=61 to 80%), the “% phytotoxicity IPOHE, post-emergence application” value [2] was 4 (4=61 to 80%) and the “% phytotoxicity ECHCG, post-emergence application” value [3] was 4 (4=61 to 80%). The “% phytotoxicity AMARE, post-emergence application” value [4] was 5 (5=81 to 100%), the “% phytotoxicity SETFA, pre-emergence application” value (Setaria faberi (SETFA) [5]) was 5 (5=81 to 100%) and the “% phytotoxicity IPOHE, pre-emergence application” value [6] was 5 (5=81 to 100%). The “% phytotoxicity ECHCG, pre-emergence application” value [7] was 5 (5=81 to 100%) and the “% phytotoxicity AMARE, pre-emergence application” value [8] was 5 (5=81 to 100%).

With N#Cc1cccc(Oc2ncc(Cl)cn2)c1S(=O)(=O)CCCC(F)F [Compound A102] the “% phytotoxicity SETFA, post-emergence application” value (Setaria faberi (SETFA) [1]) was 4 (4=61 to 80%), the “% phytotoxicity IPOHE, post-emergence application” value [2] was 4 (4=61 to 80%) and the “% phytotoxicity ECHCG, post-emergence application” value [3] was 4 (4=61 to 80%). The “% phytotoxicity AMARE, post-emergence application” value [4] was 5 (5=81 to 100%), the “% phytotoxicity SETFA, pre-emergence application” value (Setaria faberi (SETFA) [5]) was 5 (5=81 to 100%) and the “% phytotoxicity IPOHE, pre-emergence application” value [6] was 5 (5=81 to 100%). For the same compound, the “% phytotoxicity ECHCG, pre-emergence application” value [7] was 5 (5=81 to 100%) and the “% phytotoxicity AMARE, pre-emergence application” value [8] was 5 (5=81 to 100%).
